This note sets out measurements from ChEMBL document CHEMBL1201862, “PubChem BioAssay data set” (2004).

Molecules are shown by their SMILES. Activity calls are given as the source filed them. Some results are limits rather than exact numbers.

Targets include Cytochrome P450 2C9 (Homo sapiens, UniProt P11712); Cytochrome P450 2D6 (Homo sapiens, UniProt P10635); Cytochrome P450 3A4 (Homo sapiens, UniProt P08684).
The target of a further data set is T1, Cytochrome P450 1A2 (Homo sapiens, UniProt P05177).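 Also: PubChem cytochrome P450 panel assay, CYP1A2 panel member.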
T1 sequence (P05177 whole entry): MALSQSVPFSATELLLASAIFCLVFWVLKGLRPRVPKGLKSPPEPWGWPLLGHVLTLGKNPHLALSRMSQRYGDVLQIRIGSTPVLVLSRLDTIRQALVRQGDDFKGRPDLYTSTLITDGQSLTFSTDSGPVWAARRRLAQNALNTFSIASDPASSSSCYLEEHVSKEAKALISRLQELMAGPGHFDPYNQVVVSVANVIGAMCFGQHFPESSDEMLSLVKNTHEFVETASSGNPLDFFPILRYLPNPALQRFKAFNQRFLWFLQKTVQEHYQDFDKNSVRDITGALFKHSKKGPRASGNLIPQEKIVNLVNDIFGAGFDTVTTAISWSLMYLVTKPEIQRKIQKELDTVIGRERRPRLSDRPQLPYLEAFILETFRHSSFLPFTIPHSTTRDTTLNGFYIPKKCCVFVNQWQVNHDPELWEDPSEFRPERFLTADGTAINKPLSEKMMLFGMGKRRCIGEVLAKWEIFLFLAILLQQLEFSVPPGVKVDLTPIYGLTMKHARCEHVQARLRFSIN

A short description of data set [1]: cells. In kind it is functional, cell-based.
Data set [2] in a line: cells. The data set is classed as functional, cell-based. The source holds these as a separate data set.
Data set [3] addresses T2, Fatty acid synthase (Homo sapiens, UniProt P49327). The data set is described as follows: FAS thioesterase domain inhibitors, dose response, biochemical, endpoint fluorescence intensity, uHTS hits (AID 624327).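 Also: fluorescence from hydrolysis of an O-methyl fluorescein acyl ester substrate by the enzyme.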 The data set is classed as functional.
Data set [4] has as its target T2, Fatty acid synthase. Description: FAS thioesterase domain inhibitors, dose response, biochemical, kinetic fluorescence intensity (AID 624326).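 Also: rate of fluorescence rise from hydrolysis of a fluorogenic O-methyl fluorescein ester substrate.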 In kind it is functional.
The nature of data set [5]: Luminescence Cell-Based Dose Confirmation HTS to Identify Activators of 5'UTR Stem-Loop Driven Alpha-Synuclein mRNA Translation in H4 Neuroglioblastoma Cells. [Related pubchem assays: 1829 (Project Summary), 1814 (Primary HTS)]. The data set is classed as functional.
Data set [6] addresses T3, RNA-binding protein pos-1 (Caenorhabditis elegans, UniProt G5EF15).
T3 sequence (G5EF15 whole entry): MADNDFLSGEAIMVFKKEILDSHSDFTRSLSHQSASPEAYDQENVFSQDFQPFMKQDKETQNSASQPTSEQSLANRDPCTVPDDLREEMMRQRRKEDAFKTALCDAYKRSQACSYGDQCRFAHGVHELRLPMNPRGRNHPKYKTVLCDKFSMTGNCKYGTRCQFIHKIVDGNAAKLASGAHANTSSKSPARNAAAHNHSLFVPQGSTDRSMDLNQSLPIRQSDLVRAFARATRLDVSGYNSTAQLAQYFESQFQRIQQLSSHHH
The data set is described as follows: inhibitors of POS-1/mex-3 RNA binding, dose response, biochemical, fluorescence polarization (AID 1964).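 Also: purified POS-1 fused to maltose binding protein made in E. coli; potency of compounds blocking POS-1 binding to fluorescent RNA.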 In general terms: Polarisation of emitted light reports the rotation of a fluorescent probe.

Another data set relates to H4. Description: Luminescence Cell-Based Dose Response HTS to Identify Activators of 5'UTR Stem-Loop Driven Prion Protein mRNA Translation in H4 Neuroglioblastoma Cells. [Related pubchem assays: 1829 (Project Summary), 1814 (Primary HTS)]. In kind it is functional. As to conditions: Homo sapiens.
Data set [7] in a line: Luminescence Cell-Based Dose Response HTS to Identify Activators of Luciferase Translation or Activity in H4 […] Cells. [Related pubchem assays: 1829 (Project Summary), 1814 (Primary HTS)]. In kind it is functional.
Data set [8] addresses T4, Zinc finger protein mex-5 (Caenorhabditis elegans, UniProt Q9XUB2).
T4 sequence (Q9XUB2 whole entry): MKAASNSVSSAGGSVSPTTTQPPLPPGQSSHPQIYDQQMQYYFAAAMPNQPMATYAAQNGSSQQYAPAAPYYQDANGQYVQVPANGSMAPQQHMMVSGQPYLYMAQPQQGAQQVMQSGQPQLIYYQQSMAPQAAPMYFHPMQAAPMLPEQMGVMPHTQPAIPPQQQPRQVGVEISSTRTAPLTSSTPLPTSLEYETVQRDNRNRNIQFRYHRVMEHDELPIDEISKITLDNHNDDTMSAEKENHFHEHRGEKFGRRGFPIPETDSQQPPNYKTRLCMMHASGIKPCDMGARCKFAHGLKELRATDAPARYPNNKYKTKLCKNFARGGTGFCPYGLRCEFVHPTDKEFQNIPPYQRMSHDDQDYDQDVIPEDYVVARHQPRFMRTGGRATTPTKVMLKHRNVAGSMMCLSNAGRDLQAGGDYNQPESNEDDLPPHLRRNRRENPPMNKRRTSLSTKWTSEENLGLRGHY
The data set is described as follows: MEX-5/TCR-2 RNA interaction inhibitors, dose response, biochemical, C. elegans, fluorescence polarization (AID 1960).

In another data set the target is T5, Protein skinhead-1 (Caenorhabditis elegans, UniProt P34707).
T5 sequence (P34707 whole entry): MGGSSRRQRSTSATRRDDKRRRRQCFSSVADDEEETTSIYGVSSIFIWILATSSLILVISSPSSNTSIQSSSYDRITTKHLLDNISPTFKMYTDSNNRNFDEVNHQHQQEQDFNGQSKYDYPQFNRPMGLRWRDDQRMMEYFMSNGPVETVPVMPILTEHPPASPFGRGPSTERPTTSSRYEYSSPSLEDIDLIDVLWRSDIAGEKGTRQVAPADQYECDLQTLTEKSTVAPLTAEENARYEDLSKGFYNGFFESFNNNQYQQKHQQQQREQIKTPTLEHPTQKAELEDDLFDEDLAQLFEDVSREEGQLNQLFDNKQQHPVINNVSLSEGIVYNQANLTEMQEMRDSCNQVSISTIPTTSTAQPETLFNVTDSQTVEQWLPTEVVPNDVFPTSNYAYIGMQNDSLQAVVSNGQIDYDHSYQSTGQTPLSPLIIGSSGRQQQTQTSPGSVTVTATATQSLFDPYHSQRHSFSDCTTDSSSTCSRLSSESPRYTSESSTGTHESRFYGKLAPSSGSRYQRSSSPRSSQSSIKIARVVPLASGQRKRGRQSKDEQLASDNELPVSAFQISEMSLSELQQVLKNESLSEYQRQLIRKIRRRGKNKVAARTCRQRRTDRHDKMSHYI
In kind it is functional.

The target of data set [9] is G-protein coupled receptor 55 (Homo sapiens, UniProt Q9Y2T6). Description: GPR55 antagonists blocking LPI-driven arrestin recruitment, primary screen, imaging, U2OS, beta-arrestin-GFP, LPI agonist (AID 2013).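 Also: antagonist potency measured as reduced agonist-driven arrestin aggregation.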 In kind it is functional.
G-protein coupled receptor 55, sequence (Q9Y2T6 whole entry): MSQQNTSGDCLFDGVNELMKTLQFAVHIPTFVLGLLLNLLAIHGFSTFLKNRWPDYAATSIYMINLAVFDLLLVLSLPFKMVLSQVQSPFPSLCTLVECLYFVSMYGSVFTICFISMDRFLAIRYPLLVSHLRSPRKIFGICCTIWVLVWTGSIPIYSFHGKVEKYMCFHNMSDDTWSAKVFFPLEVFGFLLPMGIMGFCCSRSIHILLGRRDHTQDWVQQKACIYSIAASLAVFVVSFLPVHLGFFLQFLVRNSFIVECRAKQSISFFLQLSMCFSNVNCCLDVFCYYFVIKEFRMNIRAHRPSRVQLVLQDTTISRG
Another data set deals with Cytochrome P450 2C19 (Homo sapiens, UniProt P33261). Description: Cytochrome panel assay with activity outcomes. Panel member name: p450-cyp2c19 Compounds with AC50 equal or less than 10 uM are considered active. The data set is classed as functional.
Cytochrome P450 2C19, sequence (P33261 whole entry): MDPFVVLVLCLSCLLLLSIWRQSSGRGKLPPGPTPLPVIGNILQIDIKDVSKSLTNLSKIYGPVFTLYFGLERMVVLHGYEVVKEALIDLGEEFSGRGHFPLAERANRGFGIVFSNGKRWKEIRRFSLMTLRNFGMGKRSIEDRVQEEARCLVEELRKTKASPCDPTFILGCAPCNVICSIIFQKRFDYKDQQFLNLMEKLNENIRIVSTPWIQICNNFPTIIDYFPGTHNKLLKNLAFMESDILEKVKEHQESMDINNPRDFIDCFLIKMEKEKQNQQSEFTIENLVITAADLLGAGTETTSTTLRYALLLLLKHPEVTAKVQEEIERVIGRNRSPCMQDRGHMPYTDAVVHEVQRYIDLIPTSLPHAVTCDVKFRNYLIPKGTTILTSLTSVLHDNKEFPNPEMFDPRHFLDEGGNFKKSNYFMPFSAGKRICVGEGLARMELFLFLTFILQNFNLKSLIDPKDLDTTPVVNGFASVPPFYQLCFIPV
Data set [10] can be described thus: cytotoxicity in HEK-293T cells, dose response, cytotoxicity control for TCR NF-kB inhibitor project, luminescence, T-cell screen hits (AID 489026).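 Also: cells exposed to compound about 14 hours before the viability readout.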 The data set is classed as functional, cell-based.
For data set [11], the target named is T6, Ubiquitin-conjugating enzyme E2 N (Homo sapiens, UniProt P61088).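 Also: Dose-response confirmation in a TR-FRET assay detecting UBC13-driven polyubiquitin chain formation, inhibition measured.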
T6 sequence (P61088 whole entry): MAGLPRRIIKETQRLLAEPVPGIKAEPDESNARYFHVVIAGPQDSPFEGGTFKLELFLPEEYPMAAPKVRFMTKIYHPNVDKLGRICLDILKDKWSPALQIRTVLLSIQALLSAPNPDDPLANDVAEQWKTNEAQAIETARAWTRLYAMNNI
In kind it is functional.

What is called AC50 is the concentration giving half of the maximal activity seen. The term EC50 denotes the concentration needed to bring the measured effect to its halfway point. What is called IC50 is the concentration at which inhibition is half-maximal.

Cytochrome P450 2C9, sequence (P11712 whole entry): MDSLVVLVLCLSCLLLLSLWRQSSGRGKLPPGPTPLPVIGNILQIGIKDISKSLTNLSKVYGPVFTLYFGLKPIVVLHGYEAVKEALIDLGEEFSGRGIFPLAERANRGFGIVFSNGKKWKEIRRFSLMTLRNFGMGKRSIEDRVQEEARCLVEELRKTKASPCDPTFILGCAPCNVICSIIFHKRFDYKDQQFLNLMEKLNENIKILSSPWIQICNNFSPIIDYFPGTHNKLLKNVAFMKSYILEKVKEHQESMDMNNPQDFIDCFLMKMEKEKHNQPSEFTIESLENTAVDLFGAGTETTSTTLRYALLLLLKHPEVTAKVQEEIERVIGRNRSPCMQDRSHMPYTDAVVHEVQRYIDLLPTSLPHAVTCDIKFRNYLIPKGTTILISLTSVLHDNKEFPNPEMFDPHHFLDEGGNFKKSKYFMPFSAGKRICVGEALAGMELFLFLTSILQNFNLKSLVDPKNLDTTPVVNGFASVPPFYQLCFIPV
T2 sequence (P49327 whole entry, the tested form may be a part): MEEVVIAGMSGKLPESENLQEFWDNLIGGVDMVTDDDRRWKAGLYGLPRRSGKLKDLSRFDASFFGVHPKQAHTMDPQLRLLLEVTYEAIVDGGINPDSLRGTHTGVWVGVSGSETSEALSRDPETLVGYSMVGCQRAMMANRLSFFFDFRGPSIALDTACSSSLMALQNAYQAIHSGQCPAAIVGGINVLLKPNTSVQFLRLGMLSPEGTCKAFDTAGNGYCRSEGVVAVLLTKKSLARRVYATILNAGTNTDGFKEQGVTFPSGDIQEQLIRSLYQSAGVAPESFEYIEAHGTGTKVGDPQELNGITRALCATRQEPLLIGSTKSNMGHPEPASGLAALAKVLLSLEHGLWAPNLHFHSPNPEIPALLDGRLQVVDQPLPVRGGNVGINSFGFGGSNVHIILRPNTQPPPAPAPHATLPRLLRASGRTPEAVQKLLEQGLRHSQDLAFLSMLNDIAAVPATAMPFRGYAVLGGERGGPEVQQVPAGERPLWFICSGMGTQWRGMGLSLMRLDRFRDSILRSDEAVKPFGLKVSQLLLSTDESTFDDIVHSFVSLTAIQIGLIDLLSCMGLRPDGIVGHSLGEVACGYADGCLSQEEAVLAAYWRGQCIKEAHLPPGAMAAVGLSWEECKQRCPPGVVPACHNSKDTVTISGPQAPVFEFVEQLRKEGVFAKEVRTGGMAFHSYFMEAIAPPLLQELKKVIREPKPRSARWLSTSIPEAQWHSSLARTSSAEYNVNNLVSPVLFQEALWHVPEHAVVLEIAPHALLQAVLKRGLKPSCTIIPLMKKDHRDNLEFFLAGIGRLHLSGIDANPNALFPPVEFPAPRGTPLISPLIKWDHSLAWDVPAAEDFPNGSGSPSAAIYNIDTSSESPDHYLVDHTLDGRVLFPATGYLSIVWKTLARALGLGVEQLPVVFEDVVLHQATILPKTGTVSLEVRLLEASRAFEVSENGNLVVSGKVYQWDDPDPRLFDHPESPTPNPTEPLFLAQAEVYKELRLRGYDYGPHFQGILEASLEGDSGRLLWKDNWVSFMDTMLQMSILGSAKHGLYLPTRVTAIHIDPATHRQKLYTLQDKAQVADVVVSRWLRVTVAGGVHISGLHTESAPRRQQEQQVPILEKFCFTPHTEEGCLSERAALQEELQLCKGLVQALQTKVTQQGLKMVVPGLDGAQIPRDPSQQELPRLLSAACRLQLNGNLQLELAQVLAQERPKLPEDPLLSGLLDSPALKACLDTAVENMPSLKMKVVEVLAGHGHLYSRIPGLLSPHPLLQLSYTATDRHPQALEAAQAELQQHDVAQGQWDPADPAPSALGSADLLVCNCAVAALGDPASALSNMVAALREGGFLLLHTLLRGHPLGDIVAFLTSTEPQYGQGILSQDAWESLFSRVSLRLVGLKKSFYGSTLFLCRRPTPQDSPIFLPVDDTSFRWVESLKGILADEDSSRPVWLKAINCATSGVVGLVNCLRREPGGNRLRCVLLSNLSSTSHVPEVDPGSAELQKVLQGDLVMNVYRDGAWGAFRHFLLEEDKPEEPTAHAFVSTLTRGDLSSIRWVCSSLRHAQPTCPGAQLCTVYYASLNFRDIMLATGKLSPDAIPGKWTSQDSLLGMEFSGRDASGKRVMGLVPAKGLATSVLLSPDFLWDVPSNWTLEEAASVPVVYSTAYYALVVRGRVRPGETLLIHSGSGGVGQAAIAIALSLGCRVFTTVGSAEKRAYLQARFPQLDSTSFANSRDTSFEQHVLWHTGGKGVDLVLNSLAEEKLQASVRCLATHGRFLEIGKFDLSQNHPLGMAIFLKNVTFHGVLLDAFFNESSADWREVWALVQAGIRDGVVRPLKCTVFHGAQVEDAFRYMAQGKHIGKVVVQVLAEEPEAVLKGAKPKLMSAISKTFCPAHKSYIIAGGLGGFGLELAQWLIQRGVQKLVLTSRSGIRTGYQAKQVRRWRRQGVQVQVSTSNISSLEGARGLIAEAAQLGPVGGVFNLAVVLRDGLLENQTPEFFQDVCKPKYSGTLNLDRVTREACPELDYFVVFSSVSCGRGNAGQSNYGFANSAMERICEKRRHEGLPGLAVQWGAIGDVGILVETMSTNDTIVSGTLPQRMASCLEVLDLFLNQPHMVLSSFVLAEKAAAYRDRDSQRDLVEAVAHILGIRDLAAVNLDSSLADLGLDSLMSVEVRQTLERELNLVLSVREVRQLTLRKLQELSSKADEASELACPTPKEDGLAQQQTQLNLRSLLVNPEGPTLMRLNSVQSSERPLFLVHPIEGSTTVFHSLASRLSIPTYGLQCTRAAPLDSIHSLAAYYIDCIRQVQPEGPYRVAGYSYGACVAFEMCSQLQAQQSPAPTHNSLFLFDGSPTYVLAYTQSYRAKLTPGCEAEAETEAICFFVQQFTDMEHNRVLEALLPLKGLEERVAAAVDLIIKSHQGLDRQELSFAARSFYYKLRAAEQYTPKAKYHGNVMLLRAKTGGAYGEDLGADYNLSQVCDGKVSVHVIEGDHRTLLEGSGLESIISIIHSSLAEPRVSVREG
Cytochrome P450 3A4, sequence (P08684 whole entry): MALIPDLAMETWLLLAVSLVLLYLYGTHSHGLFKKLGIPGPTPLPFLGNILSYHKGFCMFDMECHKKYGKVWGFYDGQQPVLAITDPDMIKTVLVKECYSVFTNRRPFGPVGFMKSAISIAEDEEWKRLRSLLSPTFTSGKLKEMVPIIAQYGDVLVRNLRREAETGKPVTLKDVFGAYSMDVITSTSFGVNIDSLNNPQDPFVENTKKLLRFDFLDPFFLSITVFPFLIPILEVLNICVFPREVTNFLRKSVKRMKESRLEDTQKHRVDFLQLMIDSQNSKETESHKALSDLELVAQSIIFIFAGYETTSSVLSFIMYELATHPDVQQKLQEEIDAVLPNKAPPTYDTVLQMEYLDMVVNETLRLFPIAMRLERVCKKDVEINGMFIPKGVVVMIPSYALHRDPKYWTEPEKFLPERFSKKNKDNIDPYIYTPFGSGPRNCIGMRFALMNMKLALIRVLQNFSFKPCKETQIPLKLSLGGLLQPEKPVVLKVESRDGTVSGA
Cytochrome P450 2D6, sequence (P10635 whole entry): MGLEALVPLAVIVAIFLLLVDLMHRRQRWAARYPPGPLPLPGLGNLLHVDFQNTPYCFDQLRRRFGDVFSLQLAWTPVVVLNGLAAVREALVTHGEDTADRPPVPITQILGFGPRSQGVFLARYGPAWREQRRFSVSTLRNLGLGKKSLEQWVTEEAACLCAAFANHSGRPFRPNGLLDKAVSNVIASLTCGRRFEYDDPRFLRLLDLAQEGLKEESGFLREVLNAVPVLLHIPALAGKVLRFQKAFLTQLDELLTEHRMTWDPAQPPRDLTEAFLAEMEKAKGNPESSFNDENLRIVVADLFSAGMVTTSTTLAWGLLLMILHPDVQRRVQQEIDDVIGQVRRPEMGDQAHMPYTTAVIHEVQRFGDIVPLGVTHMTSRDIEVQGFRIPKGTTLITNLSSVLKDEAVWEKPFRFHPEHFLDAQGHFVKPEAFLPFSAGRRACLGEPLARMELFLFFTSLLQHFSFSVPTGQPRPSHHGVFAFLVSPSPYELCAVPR

As for `Nc1cc(=O)nc(SCC(=O)Nc2cccc3ccccc23)n1CCc1ccccc1`, the half-maximal activity concentration (AC50) at Cytochrome P450 1A2 was 17.8 µM (inconclusive); on Cytochrome P450 2C9 it was “inconclusive”.
As for `Cc1ccc2nc(SCC(=O)Nc3ccc(Br)cc3)nc(=O)n2c1`, the EC50 in “cells [1]” and in the data set “cells [2]” was > 350 µM (not active) in each case.
Consider `Cc1nc2scc(-c3ccc(Cl)cc3)c2c(=O)o1`, for which the IC50 was 1.32 µM (active) on Fatty acid synthase [3] and 2.91 µM (active) on Fatty acid synthase [4].
Take `Cc1cc(CC(C)C)n(-c2nc3ccccc3c(=O)n2OCc2ccccc2)n1`: the 50% effective concentration (EC50) in data set [5] is 6.96 µM (active); in data set [6], > 300 µM (not active); with H4 it was > 120 µM (not active); in data set [7], 13.5 µM (active); in data set [8], > 300 µM (not active). Moreover, the IC50 on Protein skinhead-1 was > 100 µM (inactive).
`N#CC(C#N)=Cc1ccc(N2CCOCC2)cc1`: the half-maximal effective concentration (EC50) is > 300 µM (inconclusive) in data set [6] and > 300 µM (not active) in data set [8].
Consider `CCOC(=O)c1c(N)sc(C(O)(C(F)(F)F)C(F)(F)F)c1-c1ccc(F)cc1`, for which the IC50 in [9] is 4.92 µM (active).
In the case of `CC(=O)c1ccc(N(C(=O)c2ccco2)C(C(=O)NC2CCCC2)c2ccc(N3CCOCC3)cc2)cc1` (stereo unspecified), the results for the 50% inhibitory concentration (IC50) at Fatty acid synthase [3] and at Fatty acid synthase [4] were 15.5 µM (active) and 12.5 µM (active), respectively.
For `CN(C)CCNCCN`, the concentration at half-maximal activity (AC50) result at Cytochrome P450 2C9 and at Cytochrome P450 2C19 was “inconclusive” each time.
Take `CCN1C(=O)C(=Cc2ccc(N3CCOCC3)o2)C(=O)N(CC)C1=S`: the 50% effective concentration (EC50) is > 300 µM (not active) in [6] and > 300 µM (inconclusive) in data set [8].
Take `O=C1N=C(N2CCOCC2)S/C1=C\c1ccc(-c2ccccc2Cl)o1`: the half-maximal effective concentration (EC50) in data set [6] and in [8] was > 300 µM (not active) each time.
As for `OC(C#Cc1ccccn1)c1cccs1` (stereo unspecified), the EC50 in [6] is 33.4 µM (active); in data set [8] it was 27.4 µM (inconclusive).
Take `Cc1ccc([N+](=O)[O-])cc1NC(=O)CCCOc1ccccc1`: the results for the concentration for half-maximal inhibition (IC50) at Fatty acid synthase [3] and on Fatty acid synthase [4] were 10.1 µM (active) and 27.3 µM (inactive), respectively.
As for `COc1cccc(C2CC(=O)Nc3cc4c(cc32)CCC4)c1` (stereo unspecified), the IC50 in [10] was > 80 µM (inactive).
For the molecule `O=S(=O)(Nc1ccc2c(c1)OCCO2)c1cccc2cccnc12`, the half-maximal activity concentration (AC50) on Cytochrome P450 1A2 was 5.01 µM (inconclusive); on Cytochrome P450 2C9, “inconclusive”; on Cytochrome P450 2D6 it was 39.8 µM (inconclusive).
Turning to `COc1ccc(S(=O)(=O)N2CCc3ccccc3C2)cc1OC`, the half-maximal activity concentration (AC50) result at Cytochrome P450 2C9 is “inconclusive”.
Turning to `COc1ccc(C(=O)Nc2cccc(-c3ccc4nncn4n3)c2)cc1`, the half-maximal effective concentration (EC50) in the data set “cells [1]” and in the data set “cells [2]” was > 350 µM (not active) in each case.
`Cc1ccc(Cl)cc1N1CCN(CC(O)COCc2ccco2)CC1` (stereo unspecified): the EC50 in the data set “cells [1]” and in the data set “cells [2]” was > 350 µM (not active) throughout.
With `Cc1ccc(C)c(OCC(=O)N2CCN(Cc3ccc4c(c3)OCO4)CC2)c1`, the concentration for a half-maximal effect (EC50) in the data set “cells [1]” and in the data set “cells [2]” was > 350 µM (not active) each time.
With `COC(=O)C1=C(C)N(Cc2ccccc2)C(NCc2ccc(OC)cc2)=N[C@H]1c1cccc(F)c1`, the figures for the IC50 in data set [11] and in [9] were > 20 µM (inactive) and 1.46 µM (active), respectively.
As for `CCc1ccc(NS(=O)(=O)c2cc3c(cc2C)n(C)c(=O)c(=O)n3C)cc1`, the IC50 in data set [9] is 3.39 µM (active); on Fatty acid synthase [3], 2.42 µM (active); at Fatty acid synthase [4] it was 2.83 µM (active).
On to `O=[N+]([O-])c1ccc(CN2CC(N3CCC(Cc4ccccc4)CC3)CS2(=O)=O)cc1` (stereo unspecified), for which the 50% inhibitory concentration (IC50) at Fatty acid synthase [3] was 9.92 µM (active); on Fatty acid synthase [4] it was 6.24 µM (active).
As for `COC(=O)c1cc(-n2cccc2)ccc1N1CCOCC1`, the concentration for a half-maximal effect (EC50) in data set [6] and in data set [8] was > 300 µM (not active) in each case.
As for `O=C(c1cccc(S(=O)(=O)N2CCCC2)c1)c1cccc(S(=O)(=O)N2CCCC2)c1`, the IC50 at Fatty acid synthase [3] was 12.1 µM (active); on Fatty acid synthase [4] it was 6.54 µM (active).
With `CCSc1nc(NCCN(C)C)c2c3c(sc2n1)COC(C)(CC)C3` (stereo unspecified), the EC50 in “cells [1]” and in “cells [2]” was > 350 µM (not active) throughout.
`CC(C)(C)C1=CC(O)(c2ccccc2)C=C(C(C)(C)C)C1=O`: the IC50 in data set [9] is 18.7 µM (inactive).
Take `CCOc1ccc(N2C(=O)C3C4C=CC(CC4)C3C2=O)c([N+](=O)[O-])c1` (stereo unspecified): the AC50 on Cytochrome P450 1A2 is 25.1 µM (inconclusive); on Cytochrome P450 2C9, “inconclusive”; at Cytochrome P450 3A4, 20 µM (inconclusive).
Turning to `COc1ccc(/C(O)=C/C=N/c2ccc([N+](=O)[O-])cc2C)c(OC)c1`, the EC50 in [6] and in data set [8] was > 300 µM (not active) throughout.
`CCCC(=O)NNC(=O)CCC(=O)NCc1ccccc1`: the values for the half-maximal activity concentration (AC50) entry at Cytochrome P450 2C9, on Cytochrome P450 3A4 and on Cytochrome P450 2C19 (read-out: AC50) were “inconclusive”, 0.0562 µM (inconclusive) and 39.8 µM (inconclusive), respectively.
Regarding `COc1cccc2c1OC[C@@H](CO)[C@H]2N(C)C(=O)Nc1ccc(Cl)cc1Cl`, the AC50 result at Cytochrome P450 2C9 is “inconclusive”.
